Assay results published in patent US20260001928A1 (CORTERIA PHARMACEUTICALS, priority 2022, published 2026).
*1 amine or outer side, *2 acyl side, *3 side chain or, on linkers, in order; H or OH if unused. Where a SMILES comes first, the peptide text is derived from it. Side-chain parts run from the residue outwards. [ ]: non-standard residue; d: D form. The star is where a group is joined. C18 diacid = O=C(O)CCCCCCCCCCCCCCCCC(=O)*; γGlu = O=C(O)[C@H](CCC(=O)[*:2])N[*:1]; NMeI = CC[C@H](C)[C@H](NC)C(=O)O; AEEA = NCCOCCOCC(=O)O; Aib = CC(C)(N)C(=O)O

Molecular target: T1, CFR1R receptor (Homo sapiens, UniProt P34998)
T1 construct: host or cells: CHO-K1 (clone 2)
T1 sequence (P34998 24-415): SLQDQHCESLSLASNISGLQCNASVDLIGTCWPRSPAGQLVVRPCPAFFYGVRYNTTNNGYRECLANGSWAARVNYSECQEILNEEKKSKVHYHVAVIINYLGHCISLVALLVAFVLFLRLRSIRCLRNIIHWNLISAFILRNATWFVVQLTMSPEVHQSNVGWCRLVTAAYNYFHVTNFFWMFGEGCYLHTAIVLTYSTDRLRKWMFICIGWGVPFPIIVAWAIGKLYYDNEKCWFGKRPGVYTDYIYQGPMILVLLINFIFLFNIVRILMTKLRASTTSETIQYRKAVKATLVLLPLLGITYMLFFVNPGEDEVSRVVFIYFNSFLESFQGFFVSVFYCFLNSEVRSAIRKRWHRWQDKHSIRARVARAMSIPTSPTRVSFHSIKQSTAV
Assay: Activity at anti-target CFR1R receptor, cAMP assay in CRF1R-overexpression CHO-K1 cells
Assay type: cell-based
Conditions: 100% = Sauvagine at 100 nM
Method: Assessment of activity at anti-target CFR1R receptor is done using the same procedure as the one described for the TeloHEAC cell line. The CRF1R-overexpression CHO-K1 cell line clone 2 was purchased from PerkinElmer. Cells were grown in a 10 cm dish at 37° C./5% CO2 in medium (F12 (Hams)/10% FBS/400 μg/ml G418) to near confluence. At that stage, cells were harvested, resuspended to 10 million/mL in culture medium without G418 and with 10% DMSO. 1 mL vial aliquots were slowly frozen to −80° C. in isopropanol and then transferred in liquid nitrogen for storage. These vials were used to run the experiment following the procedure reported in the previous paragraph, except for the compound used in the control well to define the 100% activation (Sauvagine at 100 nM) and the cell density (final cell density: 4000 cells/well)

SMILES | Emax (% I) | Emax (% I) (listed as 13)
CC[C@H](C)[C@H](NC(C)=O)C(=O)N[C@H](C(=O)N[C@@H](CC(C)C)C(=O)N[C@@H](CO)C(=O)N[C@@H](CC(C)C)C(=O)N[C@@H](CC(=O)O)C(=O)N[C@H](C(=O)N1CCC[C@H]1C(=O)N[C@H](C(=O)N[C@@H](CCCCN)C(=O)N[C@@H](CC(C)C)C(=O)N[C@@H](CCCCNC(=O)COCCOCCNC(=O)COCCOCCNC(=O)CC[C@H](NC(=O)CC[C@H](NC(=O)CCCCCCCCCCCCCCCCC(=O)O)C(=O)O)C(=O)O)C(=O)N[C@@H](CCC(N)=O)C(=O)NC(C)(C)C(=O)N[C@@H](CC(C)C)C(=O)N[C@@H](CC(C)C)C(=O)N[C@@H](CCCCN)C(=O)N[C@@H](CCC(N)=O)C(=O)N[C@@H](CCC(=O)O)C(=O)N[C@@H](CCCNC(=N)N)C(=O)N[C@@H](CCC(N)=O)C(=O)N[C@@H](CCCCN)C(=O)N[C@@H](CCCCN)C(=O)N[C@@H](CCC(N)=O)C(=O)N[C@@H](CCCNC(=N)N)C(=O)N[C@@H](CCC(=O)O)C(=O)N[C@@H](CCC(N)=O)C(=O)N[C@@H](C)C(=O)N[C@@H](CCC(=O)O)C(=O)N[C@@H](CCCCN)C(=O)N[C@@H](CC(N)=O)C(=O)NC(C)(C)C(=O)N[C@@H](CCC(N)=O)C(=O)N[C@H](C(=O)N[C@@H](CC(C)C)C(=O)N[C@@H](CCC(=O)O)C(=O)N[C@@H](CCC(N)=O)C(=O)N[C@H](C(N)=O)C(C)C)[C@@H](C)CC)[C@@H](C)CC)C(C)C)C(C)C [compound 26] (Ac-IVLSLDVPIKLK([AEEA-AEEA-γGlu-γGlu-C18 diacid])Q[Aib]LLKQERQKKQREQAEKN[Aib]QILEQV-NH2) | 1 % I | 
CC[C@H](C)[C@H](NC)C(=O)N[C@H](C(=O)N[C@@H](CC(C)C)C(=O)N[C@@H](CO)C(=O)N[C@@H](CC(C)C)C(=O)N[C@@H](CC(=O)O)C(=O)N[C@@H](C(=O)N1CCC[C@H]1C(=O)N[C@H](C(=O)N[C@@H](CCCCN)C(=O)N[C@@H](CC(C)C)C(=O)N[C@@H](CCCCNC(=O)COCCOCCNC(=O)COCCOCCNC(=O)CC[C@H](NC(=O)CC[C@H](NC(=O)CCCCCCCCCCCCCCCCC(=O)O)C(=O)O)C(=O)O)C(=O)N[C@@H](CCC(N)=O)C(=O)NC(C)(C)C(=O)N[C@@H](CC(C)C)C(=O)N[C@@H](CC(C)C)C(=O)N[C@@H](CCCCN)C(=O)N[C@@H](CCC(N)=O)C(=O)N[C@@H](CCC(=O)O)C(=O)N[C@@H](CCCNC(=N)N)C(=O)N[C@@H](CCC(N)=O)C(=O)N[C@@H](CCCCN)C(=O)N[C@@H](CCCCN)C(=O)N[C@@H](CCC(N)=O)C(=O)N[C@@H](CCCNC(=N)N)C(=O)N[C@@H](CCC(=O)O)C(=O)N[C@@H](CCC(N)=O)C(=O)N[C@@H](C)C(=O)N[C@@H](CCC(=O)O)C(=O)N[C@@H](CCCCN)C(=O)N[C@@H](CC(N)=O)C(=O)N[C@H](C(=O)N[C@@H](CCC(N)=O)C(=O)N[C@H](C(=O)N[C@@H](CC(C)C)C(=O)N[C@@H](CCC(=O)O)C(=O)N[C@@H](CCC(N)=O)C(=O)N[C@H](C(N)=O)C(C)C)[C@@H](C)CC)C(C)C)[C@@H](C)CC)C(C)C)C(C)C [compound 28] (H-[NMeI]VLSLD[dV]PIKLK([AEEA-AEEA-γGlu-γGlu-C18 diacid])Q[Aib]LLKQERQKKQREQAEKNVQILEQV-NH2) | 6 % I | 
CC[C@H](C)[C@H](NC(C)=O)C(=O)N[C@H](C(=O)N[C@@H](CC(C)C)C(=O)N[C@@H](CO)C(=O)N[C@@H](CC(C)C)C(=O)N[C@@H](CC(=O)O)C(=O)N[C@@H](C(=O)N1CCC[C@H]1C(=O)N[C@H](C(=O)N[C@@H](CCCCN)C(=O)N[C@@H](CC(C)C)C(=O)N[C@@H](CCCCNC(=O)CC[C@H](NC(=O)CCCCCCCCCCCCCCCCC(=O)O)C(=O)O)C(=O)N[C@@H](CCCCN)C(=O)N[C@H](C(=O)N[C@@H](CC(C)C)C(=O)N[C@@H](CC(C)C)C(=O)N[C@@H](CCC(=O)O)C(=O)N[C@@H](CCC(N)=O)C(=O)N[C@@H](CCC(=O)O)C(=O)N[C@@H](CCCCN)C(=O)N[C@@H](CCC(N)=O)C(=O)N[C@@H](CCCCN)C(=O)N[C@@H](CCCCN)C(=O)N[C@@H](CCC(N)=O)C(=O)N[C@@H](CCCNC(=N)N)C(=O)N[C@@H](CCC(=O)O)C(=O)N[C@@H](CCC(N)=O)C(=O)N[C@@H](C)C(=O)N[C@@H](CCC(=O)O)C(=O)N[C@H](C(=O)N[C@@H](CC(N)=O)C(=O)N[C@@H](CCC(=O)O)C(=O)N[C@@H](CCC(N)=O)C(=O)N[C@H](C(=O)N[C@@H](CC(C)C)C(=O)N[C@@H](C)C(=O)N[C@@H](CCC(N)=O)C(=O)N[C@H](C(N)=O)C(C)C)[C@@H](C)CC)[C@@H](C)O)[C@@H](C)CC)[C@@H](C)CC)C(C)C)C(C)C [SEQ ID No. 130, reference compound] (Ac-IVLSLD[dV]PIKLK([γGlu-C18 diacid])KILLEQEKQKKQREQAETNEQILAQV-NH2) |  | 24 % I
CC[C@H](C)[C@H](NC)C(=O)N[C@H](C(=O)N[C@@H](CC(C)C)C(=O)N[C@@H](CO)C(=O)N[C@@H](CC(C)C)C(=O)N[C@@H](CC(=O)O)C(=O)N[C@@H](C(=O)N1CCC[C@H]1C(=O)N[C@H](C(=O)N[C@@H](CCCCN)C(=O)N[C@@H](CC(C)C)C(=O)N[C@@H](CCCCNC(=O)COCCOCCNC(=O)COCCOCCNC(=O)CC[C@H](NC(=O)CC[C@H](NC(=O)CCCCCCCCCCCCCCCCC(=O)O)C(=O)O)C(=O)O)C(=O)N[C@@H](CCC(N)=O)C(=O)N[C@H](C(=O)N[C@@H](CC(C)C)C(=O)N[C@@H](CC(C)C)C(=O)N[C@@H](CCCCN)C(=O)N[C@@H](CCC(N)=O)C(=O)N[C@@H](CCC(=O)O)C(=O)N[C@@H](CCCNC(=N)N)C(=O)N[C@@H](CCC(N)=O)C(=O)N[C@@H](CCCCN)C(=O)N[C@@H](CCCCN)C(=O)N[C@@H](CCC(N)=O)C(=O)N[C@@H](CCCNC(=N)N)C(=O)N[C@@H](CCC(=O)O)C(=O)N[C@@H](CCC(N)=O)C(=O)N[C@@H](C)C(=O)N[C@@H](CCC(=O)O)C(=O)N[C@@H](CCCCN)C(=O)N[C@@H](CC(N)=O)C(=O)NC(C)(C)C(=O)N[C@@H](CCC(N)=O)C(=O)N[C@H](C(=O)N[C@@H](CC(C)C)C(=O)N[C@@H](CCC(=O)O)C(=O)N[C@@H](CCC(N)=O)C(=O)N[C@H](C(N)=O)C(C)C)[C@@H](C)CC)[C@@H](C)CC)[C@@H](C)CC)C(C)C)C(C)C [compound 31] (H-[NMeI]VLSLD[dV]PIKLK([AEEA-AEEA-γGlu-γGlu-C18 diacid])QILLKQERQKKQREQAEKN[Aib]QILEQV-NH2) | 14 % I | 
